Laboratory results reported in patent publication US6992079B2, “Substituted 11-phenyl-dibenzazepine compounds useful for the treatment or prevention of diseases characterized by abnormal cell proliferation” (President Fellows of Harvard College, priority 1997, dated 2006).
Read-outs that look alike come from different tables or passages of the source.

How the values were obtained:
[1] = test system: NCI-H460; assay type: cell-based; settings: NCI-H460, 48 h
[2] = test system: T-47D; assay: In-Vitro Testing SRB panel: Breast Cancer; assay type: cell-based; settings: 48 h
[3] = test system: NIH 3T3 mouse fibroblast cells; assay: Mitogenic assay (mitogen-induced cell proliferation); assay type: cell-based
[4] = test system: SF-295; assay: In-Vitro Testing SRB panel: CNS Cancer; assay type: cell-based; settings: SF-295, 48 h
[5] = test system: NCI-H522; assay type: cell-based; settings: NCI-H522, 48 h
[6] = test system: squamous cell carcinoma (KLN-205) cells; assay: Tumor growth in murine squamous cell carcinoma model; assay type: in vivo, mouse
[7] = test system: H460 large cell lung carcinoma; assay: Mouse xenograft tumor growth; assay type: in vivo, CD-1 nude mice
[8] = test system: SK-MEL-2; assay: In-Vitro Testing SRB panel: Melanoma; assay type: cell-based; settings: SK-MEL-2, 48 h
[9] = test system: SNB-19; assay: In-Vitro Testing SRB panel: CNS Cancer; assay type: cell-based; settings: SNB-19, 48 h
[10] = test system: SR; assay: In-Vitro Testing SRB panel: Leukemia; assay type: cell-based; settings: 48 h
[11] = test system: K-562; assay: In-Vitro Testing SRB panel: Leukemia; assay type: cell-based
[12] = test system: NCI-H226; assay type: cell-based; settings: NCI-H226, 48 h
[13] = test system: RL-60 (TS); assay: In-Vitro Testing SRB panel: Leukemia; assay type: cell-based; settings: 48 h
[14] = test system: UACC-62; assay: In-Vitro Testing SRB panel: Melanoma; assay type: cell-based; settings: UACC-62, 48 h
[15] = test system: A2058 metastatic melanoma; assay: Mouse xenograft tumor growth; assay type: in vivo, CD-1 nude mice
Experimental: NCI-A2058 human melanoma cell line was grown as monolayer culture in Minimum essential medium (D-MEM) supplemented with 10% fetal bovine serum (FBS), 0.1 mM non-essential amino acid, 1.0 mM sodium pyruvate, 100U/ml penicillin, 100 μg/ml streptomycin and 0.25 μg/ml amphotericin B and L-alanyl-1-glutamine (2 mM) at 37° C. in an atmosphere of 5% CO2 in air. The tumor cells were routinely subcultured twice weekly by trypsin-EDTA treatment. The cells were harvested from subconfluent logarithmically growing culture by treatment with typsin-EDTA and counted for tumor inoculation.
An acclimation period of at least 7 days were allowed between animal receipt and commence of tumor inoculation. When the female CD-1 nude mice were more than 6-7 weeks of age (20-25 g), each mouse was subcutaneously injected with 5.0×10^6 NCI-A2058 human melanoma cells in 0.1 ml of PBS solution at the right flank of the mice to induce tumor growth.

[16] = test system: NCI/ADR-RES; assay: In-Vitro Testing SRB panel: Breast Cancer; assay type: cell-based; settings: 48 h
[17] = test system: LOX IMVI; assay: In-Vitro Testing SRB panel: Melanoma; assay type: cell-based; settings: 48 h
[18] = Homo sapiens, read-out: LC50 (the source's name)

O=C(c1ccc([N+](=O)[O-])cc1)N1Cc2ccccc2C(c2ccccc2Cl)c2ccccc21 (stereo not shown) [Compound 28, N-(4′-Nitrobenzoyl)-11-(2′-chlorophenyl)-5,6-dihydro-11H-dibenz[b,e]azepine]
GI50 ([1]; Homo sapiens): 3.65 µM
CC50 [1, 18]: > 100 µM
TGI [1]: >1.00E−04 Molar
Percent Growth ([1]; log10 conc −4.0 Molar): 15%
Percent Growth ([1]; log10 conc −5.0 Molar): 12%
Percent Growth ([1]; log10 conc −6.0 Molar): 18%
Percent Growth ([1]; log10 conc −7.0 Molar): 92%
Percent Growth ([1]; log10 conc −8.0 Molar): 97%
GI50 ([2]; Homo sapiens, T47D): 1440 nM
CC50 ([2]; Homo sapiens, T47D, T-47D, read-out: LC50 (the source's name)): > 100 µM
TGI ([2]; T-47D): >1.00E−04 Molar
Percent Growth ([2]; T-47D, log10 conc −4.0 Molar): 26%
Percent Growth ([2]; T-47D, log10 conc −5.0 Molar): 21%
Percent Growth ([2]; T-47D, log10 conc −6.0 Molar): 55%
Percent Growth ([2]; T-47D, log10 conc −7.0 Molar): 90%
Percent Growth ([2]; T-47D, log10 conc −8.0 Molar): 95%
IC50 ([3]; NIH3T3): 40 to 500 nM
inhibition at 10 µM ([3]; NIH3T3, 10 μM compound): 99%
GI50 ([4]; Homo sapiens): 442 nM
CC50 [4, 18]: > 100 µM
TGI [4]: >1.00E−04 Molar
Percent Growth ([4]; log10 conc −4.0 Molar): 10%
Percent Growth ([4]; log10 conc −5.0 Molar): 20%
Percent Growth ([4]; log10 conc −6.0 Molar): 36%
Percent Growth ([4]; log10 conc −7.0 Molar): 75%
Percent Growth ([4]; log10 conc −8.0 Molar): 88%
GI50 ([5]; Homo sapiens): 337 nM
CC50 [5, 18]: > 100 µM
TGI [5]: >2.72E−05 Molar
Percent Growth ([5]; log10 conc −4.0 Molar): −16%
Percent Growth ([5]; log10 conc −5.0 Molar): 12%
Percent Growth ([5]; log10 conc −6.0 Molar): 13%
Percent Growth ([5]; log10 conc −7.0 Molar): 91%
Percent Growth ([5]; log10 conc −8.0 Molar): 99%
cyclin D1 and PCNA expression in vivo ([6]; KLN induced tumors): abrogated cyclin D1 and PCNA expression
tumor growth ([6]; KLN-205, subcutaneous injection or oral administration of 80 mg/kg/day for 30 days): significantly inhibited tumor growth
tumor growth [7]: significantly inhibited tumor growth
GI50 ([8]; Homo sapiens): 1760 nM
CC50 [8, 18]: > 100 µM
TGI [8]: 1.10E−05 Molar
Percent Growth ([8]; log10 conc −4.0 Molar): −31%
Percent Growth ([8]; log10 conc −5.0 Molar): 1%
Percent Growth ([8]; log10 conc −6.0 Molar): 66%
Percent Growth ([8]; log10 conc −7.0 Molar): 95%
Percent Growth ([8]; log10 conc −8.0 Molar): 107%
GI50 ([9]; Homo sapiens): 3.27 µM
CC50 [9, 18]: > 100 µM
TGI [9]: >1.00E−04 Molar
Percent Growth ([9]; log10 conc −4.0 Molar): 32%
Percent Growth ([9]; log10 conc −5.0 Molar): 44%
Percent Growth ([9]; log10 conc −6.0 Molar): 56%
Percent Growth ([9]; log10 conc −7.0 Molar): 95%
Percent Growth ([9]; log10 conc −8.0 Molar): 99%
TGI [10]: >1.00E−04 Molar
GI50 ([10]; Homo sapiens): 643 nM
CC50 [10, 18]: > 100 µM
Percent Growth ([10]; log10 conc −4.0 Molar): 21%
Percent Growth ([10]; log10 conc −5.0 Molar): 30%
Percent Growth ([10]; log10 conc −6.0 Molar): 42%
Percent Growth ([10]; log10 conc −7.0 Molar): 85%
Percent Growth ([10]; log10 conc −8.0 Molar): 76%
GI50 ([11]; Homo sapiens, K562, 48 h): 394 nM
CC50 ([11]; Homo sapiens, K562, K-562, 48 h, read-out: LC50 (the source's name)): > 100 µM
TGI ([11]; K-562, 48 h): >1.00E−04 Molar
Percent Growth ([11]; K-562, log10 conc −4.0 Molar, 48 h): 26%
Percent Growth ([11]; K-562, log10 conc −5.0 Molar, 48 h): 25%
Percent Growth ([11]; K-562, log10 conc −6.0 Molar, 48 h): 38%
Percent Growth ([11]; K-562, log10 conc −7.0 Molar, 48 h): 68%
Percent Growth ([11]; K-562, log10 conc −8.0 Molar, 48 h): 82%
GI50 ([12]; Homo sapiens): 7.96 µM
CC50 [12, 18]: > 100 µM
TGI [12]: >1.00E−04 Molar
Percent Growth ([12]; log10 conc −4.0 Molar): 33%
Percent Growth ([12]; log10 conc −5.0 Molar): 48%
Percent Growth ([12]; log10 conc −6.0 Molar): 66%
Percent Growth ([12]; log10 conc −7.0 Molar): 83%
Percent Growth ([12]; log10 conc −8.0 Molar): 90%
GI50 ([13]; Homo sapiens): 489 nM
CC50 ([13]; Homo sapiens, RL-60 (TS), read-out: LC50 (the source's name)): > 100 µM
TGI ([13]; RL-60 (TS)): 7.71E−05 Molar
Percent Growth ([13]; RL-60 (TS), log10 conc −4.0 Molar): 1%
Percent Growth ([13]; RL-60 (TS), log10 conc −5.0 Molar): 5%
Percent Growth ([13]; RL-60 (TS), log10 conc −6.0 Molar): 41%
Percent Growth ([13]; RL-60 (TS), log10 conc −7.0 Molar): 71%
Percent Growth ([13]; RL-60 (TS), log10 conc −8.0 Molar): 76%
GI50 ([14]; Homo sapiens): 363 nM
CC50 [14, 18]: > 100 µM
Percent Growth ([14]; log10 conc −4.0 Molar): 0%
Percent Growth ([14]; log10 conc −5.0 Molar): 22%
Percent Growth ([14]; log10 conc −6.0 Molar): 45%
Percent Growth ([14]; log10 conc −7.0 Molar): 57%
Percent Growth ([14]; log10 conc −8.0 Molar): 82%
tumor growth [15]: significantly inhibited tumor growth
TGI [16]: >1.00E−04 Molar
GI50 ([16]; Homo sapiens): 3.22 µM
CC50 [16, 18]: > 100 µM
Percent Growth ([16]; log10 conc −4.0 Molar): 20%
Percent Growth ([16]; log10 conc −5.0 Molar): 27%
Percent Growth ([16]; log10 conc −6.0 Molar): 74%
Percent Growth ([16]; log10 conc −7.0 Molar): 105%
Percent Growth ([16]; log10 conc −8.0 Molar): 97%
TGI [17]: >1.00E−04 Molar
GI50 ([17]; Homo sapiens): 382 nM
CC50 [17, 18]: > 100 µM
Percent Growth ([17]; log10 conc −4.0 Molar): 9%
Percent Growth ([17]; log10 conc −5.0 Molar): 8%
Percent Growth ([17]; log10 conc −6.0 Molar): 19%
Percent Growth ([17]; log10 conc −7.0 Molar): 93%
Percent Growth ([17]; log10 conc −8.0 Molar): 103%
